Patent US7901893B2, “NPC1L1 (NPC3) and methods of identifying ligands thereof” (Merck Sharp & Dohme Corp., priority 2004, dated 2011)
Several values for one entry are separate records, joined by “and”; a condition that tells them apart may be missing. Equal values may be shown once. Read-outs that look alike come from different tables or passages of the source.

Assays:
[1] = molecular target: T1, rat brush border membrane vesicles (Rattus norvegicus, UniProt Q6T3U3); experiment: Binding assay with rat brush border membrane vesicles
T1 construct: from tissue; host or cells: rat (male Sprague-Dawley) small-intestinal mucosa, brush border membrane vesicles
Excerpt: Glass fiber filters (GF/C) were obtained from Whatman.
Rate constants for binding and dissociation.
(§1) Analog structures are defined in Table 12.

rat NPC1L1 [2] = molecular target: T2, rat NPC1L1 (Rattus norvegicus, UniProt Q6T3U3); experiment: ^35S-2 competition binding, rat NPC1L1 transfected CHO cells; design: expressed in transfected cells; pCDNA3); details: 5 nM ^35S-2, 2 hours at 37° C.; read-out: Recombinant rat NPC1L1 Ki
Procedure: Rat NPC1L1 transfected CHO cells (˜500,000 cells/assay) were incubated with 5 nM ^35S-2 (˜1 million dpm/assay) for 2 hours at 37° C. in the absence or presence of increasing concentrations of EZE-glucuronide (compound 1), compounds 2, 3, 5, 6, or 8. Compound 8 is an analog of compound 2 wherein the hydroxyl group in the 3-hydroxylpropyl moiety of 2 is replaced with an oxo group.

[3] = molecular target: T3, rhesus brush border membrane vesicles (Macaca mulatta, UniProt A0MJA5); experiment: Binding assay with rhesus brush border membrane vesicles
T3 sequence (A0MJA5 1-1332): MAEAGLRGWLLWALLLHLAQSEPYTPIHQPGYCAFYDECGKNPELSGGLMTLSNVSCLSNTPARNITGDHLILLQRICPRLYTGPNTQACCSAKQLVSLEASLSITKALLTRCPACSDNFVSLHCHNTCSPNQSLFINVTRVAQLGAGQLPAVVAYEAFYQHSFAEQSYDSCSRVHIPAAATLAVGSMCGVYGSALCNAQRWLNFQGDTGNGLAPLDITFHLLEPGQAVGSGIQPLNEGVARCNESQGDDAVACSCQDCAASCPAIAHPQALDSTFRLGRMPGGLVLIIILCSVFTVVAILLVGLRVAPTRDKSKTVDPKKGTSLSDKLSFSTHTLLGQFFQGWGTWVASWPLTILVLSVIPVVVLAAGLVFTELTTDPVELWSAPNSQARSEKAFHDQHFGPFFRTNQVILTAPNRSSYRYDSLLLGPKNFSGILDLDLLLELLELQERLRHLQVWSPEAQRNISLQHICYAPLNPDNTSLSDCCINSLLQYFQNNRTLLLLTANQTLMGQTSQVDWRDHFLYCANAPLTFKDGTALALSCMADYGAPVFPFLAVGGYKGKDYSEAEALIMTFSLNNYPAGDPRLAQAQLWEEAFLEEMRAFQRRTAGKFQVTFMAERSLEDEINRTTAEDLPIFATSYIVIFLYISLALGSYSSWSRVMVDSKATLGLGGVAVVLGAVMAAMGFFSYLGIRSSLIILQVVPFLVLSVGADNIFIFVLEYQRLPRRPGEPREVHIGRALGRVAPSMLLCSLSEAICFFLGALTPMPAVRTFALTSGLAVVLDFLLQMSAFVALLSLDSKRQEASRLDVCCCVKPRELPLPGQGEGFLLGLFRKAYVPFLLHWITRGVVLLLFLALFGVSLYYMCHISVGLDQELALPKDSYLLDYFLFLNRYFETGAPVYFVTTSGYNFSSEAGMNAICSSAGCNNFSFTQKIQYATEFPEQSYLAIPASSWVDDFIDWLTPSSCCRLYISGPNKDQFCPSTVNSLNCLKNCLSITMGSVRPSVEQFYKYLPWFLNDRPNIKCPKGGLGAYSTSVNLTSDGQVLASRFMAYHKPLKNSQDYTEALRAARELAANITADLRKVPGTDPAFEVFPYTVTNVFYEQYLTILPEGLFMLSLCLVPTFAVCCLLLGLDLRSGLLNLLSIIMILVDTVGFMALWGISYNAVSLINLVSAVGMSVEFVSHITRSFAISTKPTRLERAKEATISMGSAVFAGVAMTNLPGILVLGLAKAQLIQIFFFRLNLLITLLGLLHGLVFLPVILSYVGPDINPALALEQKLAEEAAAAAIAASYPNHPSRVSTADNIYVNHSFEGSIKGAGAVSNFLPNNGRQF
Procedure: The intestines from freshly sacrificed animals were cut into segments, perfused with ice-cold saline buffer (Buffer A: 26 mM NaHCO3, 0.96 mM NaH2PO4, 5 mM HEPES, 5.5 mM glucose, 117 mM NaCl, 5.4 mM KCl, pH=7.4), placed on cold glass plates, opened longitudinally, and the mucosa scraped with glass microscope slips. This mucosa could be used fresh or frozen with identical results. To prepare the membranes, the mucosal scrapings were resuspended in 20 volumes of cold buffer consisting of 300 mM D-mannitol, 5 mM EGTA, 12 mM Tris, pH 7.4 with HCl, and containing 0.1 mM PMSF and a 1% dilution of a protease inhibitor cocktail (set 1, Calbiochem). They were homogenized using a Polytron at medium speed on ice until inspection with a microscope indicated complete cell lysis. Then, solid MgCl2 was added slowly with stirring to a final concentration of 10 mM, and the solution was kept stirring on ice for 15 min. Cellular debris was removed by centrifugation for 15 min at 3,000 g, and the membranes were recovered by centrifugation for 60 min at 48,000 g. The membranes were further rinsed by re-suspension in a buffer containing 50 mM D-mannitol, 5 mM EGTA, and 2 mM Tris at pH 7.40, and centrifugation for 60 min at 48,000 g. The final pellet was resuspended in 120 mM NaCl and 20 mM Tris at pH 7.40 to a concentration of ˜10-20 mg protein/ml, aliquoted, frozen in liquid nitrogen, and stored at −80 C. The activity was stable indefinitely and could be freeze-thawed with minimal loss of activity.
Binding assay. Assays were conducted in 12×75 mm glass test tubes and total volume 20-100 ul. In general, frozen membranes were diluted in buffer A or buffer A containing 0.03% taurocholate and 0.05% digitonin to a final concentration of 0.02 to 5 mg/ml. […] Competing ligands were likewise added as DMSO solutions to give a total 2-10% organic solvent content. […] At least 2 components of buffer A, the bicarbonate and phosphate salts, were later found to be inconsequential and were routinely omitted.
Bound ligand was quantified by single-tube vacuum filtration using GF/C glass fiber filters. […] Filtration was accomplished by adding 2.5 ml of ice cold buffer (120 mM NaCl, 0.1% sodium cholate, and 20 mM MES at pH 6.70) to the assay tube, pouring the mixture through the filter, and then rinsing the tube and filter twice more with another 2×2.5 ml buffer. The filters were counted in 7 ml vials using Packard DM liquid scintillation fluid.
Data analysis. Data from saturation experiments were subjected to a Scatchard analysis, and linear regression was performed to yield the equilibrium dissociation constant (Kd) and maximum receptor concentration (Bmax). […] Data from competition experiments were analyzed and IC50 values determined from Hill plots of the binding data.

rat NPC1L1 [4] = molecular target: T2, rat NPC1L1; experiment: Binding to membranes of HEK-293 cells expressing recombinant rat NPC1L1; design: expressed in transfected cells; host or cells: HEK-293 cells (ATCC), transient, pCR3.1; membranes; details: 0.03% sodium taurocholate and 0.05% digitonin; 1.25 mg protein/ml, 100 nM 1
Procedure: Transient expression of NPC1L1. Plasmid pCR3.1 expressing rat NPC1L1 (Genbank AY437867) or human NPC1L1 (Genbank AY437865) were prepared using standard molecular biology protocols. HEK-293 cells (ATCC) were seeded at 10×10^6 cells per T-225 flask (Corning) in DMEM containing 10% fetal calf serum, 4.5 g/L D-glucose and L-glutamine, 18 hours prior to transfection. They were transiently transfected with 25 μg of DNA using Fugene transfection reagent (Roche Biochemical) at a ratio of 6:1 Fugene:DNA. Following transfection, the cells were incubated at 37° C. and 5% CO2 for 48 hours, and then harvested using PBS based cell dissociation buffer (Gibco), pelleted at 500×g, snap frozen on dry ice, and stored at −80° C.
Membrane preparation from HEK-293 cells. Membranes were prepared by resuspending the frozen cell pellets in ten volumes of 20 mM HEPES/Tris buffer at pH 7.40 containing 8% sucrose, and sonicating the suspensions with a probe sonicator on ice until most of the cells were lysed. To isolate the membranes, the sonicates were centrifuged at 1600×g for 10 min to remove cell debris, and then the supernatants were centrifuged at 125,000×g for 1 hour to recover the membranes. These membranes were resuspended in 20 mM HEPES/Tris buffer at pH 7.40 containing 160 mM NaCl and 5% glycerol, and stored at 10-20 mg/ml protein at −80° C.
as §1

[5] = 0.03% sodium taurocholate and 0.05% digitonin, 1.25 mg protein/ml, 100 nM 1, read-out: Rat BBM Ki
[6] = native rat intestinal brush border membranes, read-out: Rat BBMV Ki
[7] = rat brush border membrane vesicles, read-out: RAT IC50 (nM), inhibition of ^3H-EZE-gluc binding
[8] = Monkey BBM Ki (nM), 0.03% sodium taurocholate and 0.05% digitonin, 1.25 mg protein/ml, 20 nM 1
[9] = 50 nM ^3H-EZE-glucuronide, 150 μg protein/assay, read-out: inhibition constant Ki, Rat

In the case of `O=C(O)[C@H]1O[C@@H](Oc2ccc([C@@H]3[C@@H](CCCc4ccc(F)cc4)C(=O)N3c3ccc(F)cc3)cc2)[C@H](O)[C@@H](O)[C@@H]1O` [Compound 3], the Ki [1, 5] is reported as 1600 nM, the Ki [1, 6] is reported as 2300 nM and the IC50 [1, 7] is reported as 2300 nM. The Ki (rat NPC1L1 [2]) was 2400 nM, the Ki [3] was 150 nM and the Ki (rat NPC1L1 [4]) was 820 nM.
`O=C(O)C1OC(Oc2ccc(C3C(CCC(O)c4ccc(F)cc4)C(=O)N3c3ccc(F)cc3)cc2)C(O)C(O)C1O` (single isomer, unassigned) [Compound 4] was tested, and the Ki [1, 5] was 130000 nM, the activity in vitro ([1]; in all species, Ki>100×KD for ezetimibe glucuronide) was “completely inactive” and the IC50 [1, 7] was over 100000 nM. The Kd ([1]; rat membrane binding assay, read-out: Kd for the rat target) was over 100000 nM, the Ki [3, 8] was 22000 nM and the Ki (rat NPC1L1 [4]) was 74000 nM.
`O=C(CC[C@H]1C(=O)N(c2ccc(F)cc2)[C@@H]1c1ccc(O[C@@H]2O[C@H](C(=O)O)[C@@H](O)[C@H](O)[C@H]2O)cc1)c1ccc(F)cc1` [Compound 6] was tested, and the Ki [1, 5] was 33000 nM, the Ki [1, 6] was 70000 nM and the IC50 [1, 7] was 70000 nM. For the same molecule, the Ki (rat NPC1L1 [2]) was 84500 nM, the Ki [3] was 3300 nM and the Ki (rat NPC1L1 [4]) was 23000 nM.
`CS(=O)(=O)NCC#Cc1ccc(N2C(=O)[C@H](CC[C@H](O)c3ccc(F)cc3)[C@H]2c2ccc(O[C@@H]3O[C@H](C(=O)O)[C@@H](O)[C@H](O)[C@H]3O)cc2)cc1` [Compound 2, 4-[(2S,3R)-3-[(3S)-3 (4-fluorophenyl)-3-hydroxypropyl]-1-(4-{3-[(methylsulfonyl)amino]prop-1-yn-1-yl}phenyl)-4-oxoazetidin-2-yl]phenyl β-D-glucopyranosiduronic acid] was tested, and the Ki [1, 9] was 15 nM, the Ki [1, 6] was 15 nM and the “potency relative to ezetimibe glucuronide” value ([1]; rat enterocyte brush border membrane preparations) was 35 fold. For the same molecule, the Ki (rat NPC1L1 [2]) was 12 nM and the “potency relative to ezetimibe glucuronide” value ([3]; rhesus membrane preparations) was “equipotent”.
`O=C(O)[C@H]1O[C@@H](Oc2ccc([C@@H]3[C@@H](CC[C@@H](O)c4ccc(F)cc4)C(=O)N3c3ccc(F)cc3)cc2)[C@H](O)[C@@H](O)[C@@H]1O` [Compound 5] gave a Ki [1, 5] of 2800 nM, a Ki [1, 6] of 3900 nM and an IC50 [1, 7] of 3900 nM. The Ki (rat NPC1L1 [2]) was 5800 nM, the Ki [3, 8] was 120 nM and the Ki (rat NPC1L1 [4]) was 1700 nM.
With `O=C(O)[C@H]1O[C@@H](Oc2ccc([C@@H]3[C@@H](CC[C@H](O)c4ccc(F)cc4)C(=O)N3c3ccc(F)cc3)cc2)[C@H](O)[C@@H](O)[C@@H]1O` [Compound 1, Ezetimibe glucuronide] the “rate constant for association kon” value ([1]; 25 nM 1, rat membranes, 25° C.) was 5,540 M^−1 s^−1, the kobs ([1]; 25 nM of 1 and 3 mg/ml protein at 25° C.) was 0.004 s⁻¹ and the Ki [1, 9] was 530 nM. It also gave a Kd ([1]; 1.5 mg/ml protein, 50 nM 1, 1 hour, read-out: KD at equilibrium by competition of unlabeled compound against 1) of 600 nM, a Ki [1, 5] of 390 nM and a Bmax ([1]; ^3H-EZE-glucuronide, rat BBMV) of 20.7 pmol/mg protein. For the same molecule, the Kd ([1]; ^3H-ezetimibe glucuronide, rat membranes, no detergent, read-out: KD (equilibrium saturation binding, Scatchard)) was 542 nM and 540 nM, the Ki [1, 6] was 600 nM and the IC50 [1, 7] was 530 nM. The “rate constant for dissociation koff” value ([1]; rat membranes, dissociation initiated with 100 μM unlabeled ezetimibe glucuronide) was 0.0024 s⁻¹, the Kd ([1]; rat membranes, read-out: Kd predicted from rate constants (Kd=koff/kon)) was 440 nM and the IC50 ([1]; rat, read-out: in vitro binding affinity (IC50)) was 542 nM. For the same molecule, the residence time ([1]; read-out: half-life of dissociation) was 4.7 min, the kon ([1]; read-out: rate constant for association kon, 25 nM 1, rat membranes, 25° C.) was 5500 M⁻¹ s⁻¹ and the kon ([1]; read-out: rate constant for association kon, rat brush border membranes) was 5540 M⁻¹ s⁻¹. It also gave a koff ([1]; read-out: rate constant for dissociation koff) of 0.0024 s⁻¹, a Ki (rat NPC1L1 [2]) of 790 nM and an IC50 [3] of 41 nM. For the same molecule, the Kd ([3]; KD at equilibrium by competition of unlabeled compound against 1, 0.5-1.25 mg/ml protein, 22-50 nM 1, more than 3 hours) was 38.6 nM, the Kd ([3]; Kd (equilibrium saturation binding, Scatchard), ^3H-ezetimibe glucuronide, rhesus membranes, no detergent) was 41 nM and the Kd ([3]; Kd predicted from rate constants (Kd=koff/kon), rhesus membranes) was 32 nM. It also gave a Ki [3, 8] of 15 nM, a residence time ([3]; read-out: half-life for dissociation of the complex, rhesus/monkey complex) of about 90 min and a kon ([3]; read-out: rate constant for association kon) of 3900 M⁻¹ s⁻¹. The koff ([3]; read-out: rate constant for dissociation koff, rhesus membranes) was 0.000123 s⁻¹, the “concentration of binding site” value ([3]; rhesus membranes) was 5.5 pmol/mg membrane protein and the “rate constant for dissociation koff” value ([3]; rhesus membranes, listed as [^3H]ezetimibe glucuronide) was 0.00012 s⁻¹. It also gave a Ki (rat NPC1L1 [4]) of 210 nM.
`O=C1[C@H](CC[C@H](O)c2ccc(F)cc2)[C@@H](c2ccc(O)cc2)N1c1ccc(F)cc1` [ezetimibe] showed a Kd ([1]; Table 11, rat, absence of detergents, read-out: KD) of 542 nM and a Kd ([3]; KD (nM), Table 11, monkey, absence of detergents) of 41 nM.
